Assay results as given in patent publication US20230103675A1, “ALLERGEN PROTECTION FOR THE SKIN” (BEIERSDORF AG, priority 2020, published 2023).
Where no end group is shown, it is not given here.

Key:
Phenion skin models = assay: H&E staining of cryosections of Phenion skin models; type: cell-based; details: FIG. 5 B; 0.5 mM peptide, no allergen
Description: (§1) The investigations were carried out using Phenion FTS full skin models (Phenion, Henkel). These were maintained for 3 days at 37° C. and 7% CO2 in deep-well plates having a […] pore size in the cell culture inserts. The skin models were maintained in 1.5 ml of air-liquid interface medium without phenol red. The medium was changed daily. The test substances were dissolved in ethanol and incubated at room temperature for 24 h. After culturing for 24 h, 25 μl of the substance solution was dripped onto a sterile filter paper that had previously been laid on the skin model. The barrier peptide (0.5 mM AcRFAACAA) had previously been applied to the model as a solution in 100 mM phosphate buffer (pH 7.5). Alternatively, the barrier peptide was applied in a formulation having a content of 0.25% by weight.
(§2) After culturing for a further 24 h, the models were harvested and one half embedded in OCT mounting medium (VWR Q-Path Chemicals), the other half snap-frozen in liquid nitrogen. The supernatant of each model was collected and stored at −20° C.
In further investigations, frozen sections were thawed and incubated for 10 min in 3.7% paraformaldehyde at RT. After three PBS wash steps and one minute in distilled water, they are stained for 3 min in hematoxylin solution. […]

[1] = system: Phenion FTS full skin models; assay: Cytokine release (IL8, IL6) in supernatants of Phenion FTS full skin models, Bio-Plex multiplex immunoassay; type: cell-based, human; details: FIGS. 2 to 4 left bar; 0.5 mM peptide without allergen
Description: as §1, §2
The supernatants were then analyzed (FIGS. 2, 3 and 4).
The supernatants of the Phenion FTS models were analyzed using the Bio-Plex Pro Human Cytokine Screening Panel (Bio-Rad) according to the manufacturer's protocol. […] The cytokine concentrations are calculated on the basis of the standard curves from the Bioplex system. […]

[2] = Barrier effect against metals
[3] = Direct peptide reaction assay (DPRA) with urushiols, Ellman's reagent, 24 h; details: FIG. 9; urushiol structures I-V, 24 h reaction, n=3
Description: The reaction courses shown in FIGS. 8 and 9 were determined colorimetrically through the reaction of the peptide with Ellmann's reagent in a photometer. In this reaction, DTNB ((5,5′-dithiobis-2-nitrobenzoic acid, Ellmann's reagent) is cleaved and attached to the SH residue of the amino acid cysteine of the peptides of the invention (Ac-RFAACAA, RFAACAA).
The SH radical is at the same time the reactive binding site of the peptide with the allergens. The color reaction with DTNB (color change from colorless to yellow) competes with the allergen reaction. This means that the better the allergen reacts with the peptide, the less peptide remains available for the reaction with the detection reagent, i.e. the less the resulting yellow coloration.
The control is the peptide in the buffer system without allergen, i.e. instead of allergen only its solvent (ethanol) is added.
Urushiols of the structure below were used.
The investigated urushiols differ in the saturation in the side chain R.
Urushiols where R═C15 singly (C15:1), doubly (C15:2) or triply (C15:3) unsaturated were investigated.

Substance: Ac-RFAACAA [Ac-RFAACAA, acetylarginine-phenylalanine-alanine-alanine-cysteine-alanine-alanine]
- skin model morphology (H&E) with peptide on its own (Phenion skin models): unchanged
- skin model IL8/IL6 release with peptide on its own [1]: unchanged

Substance: His His His His His His (HHHHHH; printed: His His His His His His)
- barrier effect against metals and nickel in particular [2]: achieved a barrier effect

Substance: RFAACAA [Arg Phe Ala Ala Cys Ala Ala]
- reactivity and thus protective activity against urushiols [3]: very high reactivity
